Drawing on PubChem BioAssay (NCI), this text covers GI50 and TGI for eight compounds.

What all share (assay): inhibition of tumour cell growth, NCI panel, 48 h
Assay [1] relates to OVCAR-5 ovarian.
Assay [2] concerns HT29 colon.
The subject of assay [3] is CCRF-CEM leukemia.
In assay [4] the test system is A498 renal.
The subject of assay [5] is NCI-H522 lung.
Assay [6] concerns PC-3 prostate.
Assay [7] deals with IGROV1 ovarian.
For assay [8], the system named is SNB-75 CNS.
Assay [9] relates to SK-MEL-5 melanoma.
The subject of assay [10] is COLO 205 colon.

Structures are written as SMILES.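 In this assay, cells in 96-well plates receive the compound at five concentrations for 48 hours. Endpoints are linearly interpolated between the surrounding concentrations. The concentration for 50% growth inhibition is given as GI50. Definition used: TGI = concentration required for complete inhibition of growth.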 Where only a bound is given, the exact number is not on record here.

Consider `O=Cc1ccc(-c2ccc(-c3nc4ccccc4o3)cc2)o1`, for which the GI50 in assay [1] was 29 µM; in [2], 53.2 µM; in assay [3], over 100000 nM; in assay [4], 21.2 µM; in assay [5] it was 24.4 µM; in assay [6] it was 30.3 µM. The GI50 in [7] is 38.6 µM; in assay [8] it was 81.9 µM; in assay [9] it was 22 µM; in assay [10] it was 46.9 µM. Besides, the TGI was 95.2 µM in [1]; over 100 µM in [2]; over 100 µM in assay [3]; over 100 µM in [4]; 59.3 µM in assay [5]; over 100 µM in assay [6]. The TGI in assay [7] was over 100 µM; in assay [8], over 100 µM; in [9] it was 62 µM; in assay [10] it was over 100 µM.

As for `CC1(CCC(=O)OC2CCCCC2)OCCO1`, the TGI in assay [1], in assay [2], in assay [3], in assay [4], in [5] and in assay [6] was over 100 µM in each case. In addition, the TGI in assay [7], in [8], in [9] and in [10] was over 100 µM throughout.

Take `CCN(CC)CCCNC(=O)c1c2c(n3ccccc13)C(=O)c1ncccc1C2=O`: the GI50 was 1.18 µM in assay [1]; 0.248 µM in assay [2]; 2210 nM in assay [3]; 1.66 µM in assay [4]; 0.515 µM in assay [5]; 0.616 µM in assay [6]. The GI50 is 1.5 µM in assay [8], 0.275 µM in assay [9] and 0.123 µM in assay [10]. Moreover, the TGI was 4.9 µM in assay [1]; 1.54 µM in [2]; over 100 µM in assay [3]; 3.27 µM in assay [4]; 2.32 µM in assay [5]; 6.65 µM in [6]. Also, the figures for the TGI in assay [8], in [9] and in assay [10] were 2.93 µM, 1.24 µM and 0.399 µM, respectively.

Regarding `O=C(OCc1ncc(-c2ccc(C(F)(F)F)cc2)c(NC2CCCCCC2)n1)c1c(F)c(F)c(F)c(F)c1F`, the GI50 in assay [1] is 20 µM; in [2] it was 13.8 µM; in assay [3] it was 1830 nM; in [4], 18.7 µM; in assay [5], 3.9 µM; in assay [6], 12 µM. In addition, the GI50 was 2.86 µM in assay [7], 13 µM in [8], 16 µM in assay [9] and 18 µM in assay [10]. In addition, the TGI in assay [1] was 36.5 µM; in [2], 40 µM; in assay [3], 7.02 µM; in assay [4] it was 33.2 µM; in assay [5], 14.6 µM; in assay [6] it was 26.7 µM. Also, the TGI in [7] worked out at 7.28 µM; in assay [8] it was 25.9 µM; in assay [9] it was 30.3 µM; in assay [10] it was 37.8 µM.

As for `NC(=O)c1cccc(Nc2nccc(Nc3cccc4[nH]ncc34)n2)c1`, the GI50 is 7.5 µM in [1]; 9.68 µM in assay [2]; 9140 nM in assay [3]; 5 µM in assay [4]; 8.85 µM in [5]; 8.73 µM in assay [6]. The GI50 in [7] is 10.5 µM; in [8] it was 4.58 µM; in [9], 6.96 µM; in assay [10], 5.5 µM. Further, the TGI is over 25 µM in assay [1]; over 25 µM in assay [2]; over 25 µM in assay [3]; 22.7 µM in assay [4]; over 25 µM in assay [5]; over 25 µM in assay [6]. For the same compound, the TGI in [7] is over 25 µM; in assay [8], 15.6 µM; in [9], over 25 µM; in assay [10], 17.1 µM.

On to `COc1ccc(OC)c2c1[nH]c(=O)c1c3ncccc3cn21`, for which the GI50 is 1.49 µM in assay [2]; 3320 nM in [3]; 3.95 µM in assay [4]; 4.71 µM in assay [5]; 4.73 µM in assay [6]; 3.21 µM in [7]. In addition, the GI50 in assay [8] is 4.39 µM; in [9] it was 3.79 µM; in assay [10], 2.79 µM. In addition, the TGI in assay [2] was 4.34 µM; in assay [3], over 100 µM; in assay [4], over 100 µM; in assay [5], over 100 µM; in [6], over 100 µM; in [7], over 100 µM. The TGI is 62 µM in assay [8], over 100 µM in [9] and over 100 µM in assay [10].

Consider `COc1ccccc1CNCCCN1C(=O)c2ccc3c4c(ccc(c24)C1=O)C(=O)N(CCCCNCCCN)C3=O`, for which the GI50 in assay [1] is 2.95 µM; in [2], 0.95 µM; in [3] it was 752 nM; in assay [4], 3.12 µM; in [5], 1.46 µM; in [6], 2.29 µM. For the same compound, the GI50 in [7] is 1.43 µM; in assay [8] it was 7.13 µM; in assay [9], 0.467 µM; in [10], 0.524 µM. Besides, the TGI was determined as 9.02 µM in assay [1]; 3.37 µM in assay [2]; 5.17 µM in [3]; 12.8 µM in assay [4]; 3.25 µM in [5]; 9.82 µM in [6]. In addition, the TGI was determined as 3.86 µM in assay [7], 0.95 µM in [9] and 1.08 µM in assay [10].

As to `O=C1C=CC(=O)c2cc(Sc3ccccc3)c(=O)ccc21`, the TGI in assay [1] is 36.3 µM; in [2] it was 41.6 µM; in assay [3] it was 9.43 µM; in assay [4], 31.4 µM; in [5] it was 5.96 µM; in assay [6] it was 33.2 µM. The TGI in assay [7] was determined as 35 µM; in [8] it was 31.2 µM; in assay [9], 31.5 µM; in assay [10], 24.9 µM.
